Experimental data taken from patent publication US6492416B1, “4,5-diaryl-3(2H)-furanone derivatives as cyclooxygenase-2 inhibitors” (Pacific Corporation, priority 1999, dated 2002).
≈ marks a conversion by molar mass, not a printed value.

Columns and labels:
male SD rat = experiment: Gastric safety studies (Ulcer Index); format: in vivo; settings: daily dose 30 mg/kg body weight oral for 7 days, mean of animals' scores
Procedure: Gastric safety for compounds of this invention was evaluated as follows [Otterness et al., Laboratory Models for Testing Nonsteroidal Anti-inflammatory Drugs in Nonsteroidal Anti-inflammatory Drugs; ed John Wiley & Sons pp 217-227 (1985); Wiley Interscience; New York]: A designated dose of a compound of this invention suspended in 1% methylcellulose solution was administered daily once for 7 days to a male SD rat by oral gavage. The animal was sacrificed and the inner wall of the stomach was examined visually 4 hours after the last administration (the 7th day administration). The gastric safety was assessed by the “Ulcer Index” as defined as the following scores: […]
Score 1: apparently normal stomach.
Score 2: one or more than one ulcer site of pin-point size only.
Score 3: erosions of 2 or fewer than 2, which may be accompanied by ulcers of pin-point size (an erosion is defied by any ulcerative lesion of any dimension greater than 1 mm).
Score 4: erosions more than 2, which may be accompanied by ulcers of pin-point size.
Score 5: erosions accompanied by hemorrhage.
In evaluating the gastric safety of a compound of this invention, usually 8 animals were used. The ulcer index for a compound was calculated by averaging of the ulcer index of each animal. The following Table 5 illustrates gastric safety of some COX-2 selective inhibitors of this invention.

COX-1 = biological target: T1, COX-1 (Mus musculus, UniProt P22437); experiment: Evaluation of COX-1 activity: PGE2 formation in mouse peritoneal macrophages without aspirin and LPS treatment; format: cell-based
T1 sequence (P22437 27-602): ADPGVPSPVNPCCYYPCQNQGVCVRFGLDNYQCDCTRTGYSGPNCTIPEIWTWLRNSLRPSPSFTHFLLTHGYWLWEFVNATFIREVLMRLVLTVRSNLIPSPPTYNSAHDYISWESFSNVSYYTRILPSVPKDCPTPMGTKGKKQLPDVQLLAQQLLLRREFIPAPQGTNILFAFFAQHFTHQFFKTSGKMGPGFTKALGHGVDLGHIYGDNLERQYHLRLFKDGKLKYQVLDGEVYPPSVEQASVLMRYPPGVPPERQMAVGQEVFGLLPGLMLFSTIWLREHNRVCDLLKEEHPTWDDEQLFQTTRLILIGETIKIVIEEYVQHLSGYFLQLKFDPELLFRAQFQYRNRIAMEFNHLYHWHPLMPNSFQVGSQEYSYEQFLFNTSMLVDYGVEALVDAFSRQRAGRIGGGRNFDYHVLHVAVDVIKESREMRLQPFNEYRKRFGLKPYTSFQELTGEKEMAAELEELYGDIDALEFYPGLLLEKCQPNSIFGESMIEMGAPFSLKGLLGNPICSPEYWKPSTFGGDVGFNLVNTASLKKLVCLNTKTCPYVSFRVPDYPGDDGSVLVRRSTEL
Summary of the method: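 Peritoneal macrophages from C57BL/6 mice, without aspirin or LPS treatment, were plated at 1×10^6 cells/ml and fixed 2 h at 37 °C. Cells were preincubated 10 min, then given 10 μM arachidonic acid plus compound for 10 min; PGE2 was measured by RIA or EIA. IC50 came from 4–5 concentrations.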

male SD rats = experiment: Carrageenan-induced thermal hyperalgesia assay; format: in vivo, rat; settings: 3 hours
Procedure: Male SD rats weighing 170˜220 g were fasted but with free access to water for at leat 16 hours prior to testing. The rats were administered with a compound of this invention suspended in 20 ml 0.5% methylcellulose/0.025% Tween-20, or with vehicle only. Then the rats were given […] of 1% carrageenan in saline or […] saline only into the plantar surface of the left hindpaw by injection. Three hours later, the nociceptive responses to thermal stimuli were assessed as follows: Rats, which were placed in a transparent plastic chamber with a glass floor, were allowed to acclimate to their environment for 10 minutes prior to the testing. The withdrawal latency period in seconds was determined for the control and the compound treated group, and a percent inhibition in the withdrawal latency was calculated to estimate the analgesic effect of the compound [Pain 32, 77 (1988)]. In this study 6 animals were used for each group.

| Compound | IC50, μg/ml COX-1 (COX-1) [µg/mL] | Ulcer Index (1˜5) (male SD rat) | % Inhibition at 1.0 mg/kg body weight (rat hyperalgesia) (male SD rats) [%] |
| --- | --- | --- | --- |
| CC1(C)OC(c2ccc(S(C)(=O)=O)cc2)=C(c2cccc(F)c2)C1=O [Example 4, 2,2-Dimethyl-4-(3-fluorophenyl)-5-{4-(methylsulfonyl)phenyl}-3(2H)-furanone] | 5 (≈ 13.9 µM) | 1.8 ± 0.7 | 27 |
| CC1(C)OC(c2ccc(S(N)(=O)=O)cc2F)=C(c2ccc(F)cc2)C1=O [Example 334] | 3 (≈ 7.91 µM) |  |  |
| CC1(C)OC(c2ccc(S(C)(=O)=O)cc2)=C(c2cc(F)cc(F)c2)C1=O [Example 11, 4-(3,5-Difluorophenyl)-2,2-dimethyl-5-{4-(methylsulfonyl)phenyl}-3(2H)-furanone] | 20 (≈ 52.9 µM) | 1.8 ± 1.0 |  |

Now from value to compound, other results behind:

| IC50, μg/ml COX-1 (COX-1) [µg/mL] | Compound | Ulcer Index (1˜5) (male SD rat) | % Inhibition at 1.0 mg/kg body weight (rat hyperalgesia) (male SD rats) [%] |
| --- | --- | --- | --- |
| 3.82 (≈ 10.1 µM) | CC1(C)OC(c2ccc(S(N)(=O)=O)cc2)=C(c2cccc(Cl)c2)C1=O [Example 126] |  |  |
| 1.02 (≈ 2.82 µM) | CC1(C)OC(c2ccc(S(N)(=O)=O)cc2)=C(c2cccc(F)c2)C1=O [Example 129, 5-{4-(aminosulfonyl)phenyl}-2,2-dimethyl-4-(3-fluorophenyl)-3(2H)-furanone] |  | 92 |
